{
  "source": "patent US9937151B2",
  "about": "“Carbapenem antibacterials with gram-negative activity” (priority 2010, dated 2018)",
  "system": "G(−) bacterial strains",
  "assay": "Dilution antimicrobial susceptibility tests (MIC, NCCLS agar dilution / broth dilution)",
  "assay_type": "cell-based, Gram-negative organisms",
  "settings": "unit assumed",
  "procedure,_shortened": "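Agar dilution on Mueller-Hinton agar at 10^4 CFU/spot and broth dilution at 5×10^5 CFU/well, per NCCLS M7-A5. Streptococci tested on Mueller-Hinton agar with 5% sheep blood. MIC taken as minimum inhibitory concentration; ATCC control strains run alongside.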",
  "data": [
    {"smiles": "C[C@@H](O)C1C(=O)N2C(C(=O)O)=C(CN3CC[C@H](C(=O)NC(=N)N)C3)[C@H](C)C12", "note": "(stereo partly shown) [Compound 143]", "values": [
      {"measurement": "MIC", "setting": "strain #1 Acinetobacter calcoaceticus", "value": 8, "unit": "µg/mL"},
      {"measurement": "MIC", "setting": "strain #2 Acinetobacter baumannii, Cf-R, Ci-R", "value": 32, "unit": "µg/mL"},
      {"measurement": "MIC", "setting": "strain #3 Acinetobacter baumannii, Cf-R, Ci-R, Mp-I", "value": 32, "unit": "µg/mL"},
      {"measurement": "MIC", "setting": "strain #4 Acinetobacter baumannii, Cf-R, Imp-I, CBPase", "value": "> 32", "unit": "µg/mL"},
      {"measurement": "MIC", "setting": "strain #5 Citrobacter diversus", "value": 0.5, "unit": "µg/mL"},
      {"measurement": "MIC", "setting": "strain #6 Citrobacter freundii", "value": 1, "unit": "µg/mL"},
      {"measurement": "MIC", "setting": "strain #7 Enterobacter aerogenes", "value": 4, "unit": "µg/mL"},
      {"measurement": "MIC", "setting": "strain #8 Enterobacter cloacae, Cf-R, B+", "value": 0.5, "unit": "µg/mL"},
      {"measurement": "MIC", "setting": "strain #9 Enterobacter cloacae, Cf-R", "value": 1, "unit": "µg/mL"},
      {"measurement": "MIC", "setting": "strain #10 Escherichia coli, Ci-R", "value": 0.5, "unit": "µg/mL"},
      {"measurement": "MIC", "setting": "strain #11 Escherichia coli, Ci-R, AmpC", "value": 0.5, "unit": "µg/mL"},
      {"measurement": "MIC", "setting": "strain #12 Escherichia coli", "value": 0.5, "unit": "µg/mL"},
      {"measurement": "MIC", "setting": "strain #13 Escherichia coli", "value": 0.5, "unit": "µg/mL"},
      {"measurement": "MIC", "setting": "strain #14 Klebsiella oxytoca", "value": 1, "unit": "µg/mL"},
      {"measurement": "MIC", "setting": "strain #15 Klebsiella pneumoniae", "value": 2, "unit": "µg/mL"},
      {"measurement": "MIC", "setting": "strain #16 Moraxella catarrhalis", "value": 0.063, "unit": "µg/mL"},
      {"measurement": "MIC", "setting": "strain #17 Morganella Morganii", "value": 16, "unit": "µg/mL"},
      {"measurement": "MIC", "setting": "strain #18 Morganella Morganii", "value": 8, "unit": "µg/mL"},
      {"measurement": "MIC", "setting": "strain #19 Proteus vulgaris", "value": 8, "unit": "µg/mL"},
      {"measurement": "MIC", "setting": "strain #20 Proteus mirabilis", "value": 1, "unit": "µg/mL"},
      {"measurement": "MIC", "setting": "strain #21 Providencia rettgeri", "value": 2, "unit": "µg/mL"},
      {"measurement": "MIC", "setting": "strain #22 Salmonella typhimurium", "value": 0.5, "unit": "µg/mL"},
      {"measurement": "MIC", "setting": "strain #23 Serratia marcescens", "value": 1, "unit": "µg/mL"},
      {"measurement": "MIC", "setting": "strain #24 Serratia marcescens", "value": 2, "unit": "µg/mL"},
      {"measurement": "MIC", "setting": "strain #25 Shigella dysenteriae", "value": 1, "unit": "µg/mL"},
      {"measurement": "MIC", "setting": "strain #26 Shigella sonnei", "value": 1, "unit": "µg/mL"},
      {"measurement": "MIC", "setting": "strain #27 Shigella flexneri", "value": 0.5, "unit": "µg/mL"},
      {"measurement": "MIC", "setting": "strain #28 Stenotrophomonas maltophilia", "value": 4, "unit": "µg/mL"}
    ]}
  ]
}
